Data published in patent publication US20070275990A1, “Heterocyclic Spiro Compound” (ONO PHARMACEUTICAL CO., LTD., priority 2003, published 2007).

Legend:
MBR = molecular target: T1, MBR (Rattus norvegicus, UniProt P16257); test: Receptor binding experiment ([3H]PK11195 competition binding); settings: rat brain membrane preparation, [3H]PK11195 0.5 or 1 nmol/L; Ki calculated by Cheng and Prusoff formula from KD value and IC50
T1 construct: from tissue; host or cells: whole brain without cerebellum of male Wistar rats, crude membrane preparation
Experimental: The affinity of the compounds in the present invention to MBR was determined using rat brain membrane preparation. In addition, the measurement in the present invention was improved the accuracy of measurement and the sensitivity of measurement for evaluating the compounds in the present invention as follows. After male Wister rats were decapitated to extirpate the whole brain and cerebellums were removed. They were homogenized in ice-cold 50 mmol/L Tris-HCL buffer solution (pH 7.4), centrifuged and the obtained pellets were washed. The pellets resuspended and adjusted to about 1 mg/mL were used as rat brain membrane preparations for binding assay. The binding assay were experimented using [^3H]PK11195 as a MBR selective ligand. […]
To determine the amount of total binding in saturation binding experiment, membrane preparations, various concentrations of [^3H]PK11195, final concentration: 0.5 vol % dimethylsulfoxide (DMSO) and 50 mmol/L Tris-HCL buffer solution (pH 7.4) were mixed (total volume 200 μL) and were incubated for 1 hour at room temperature. […] The filter was dried and then the radioactivity on the filter was measured by liquid scintillation counter. The data obtained by the binding experiments were Scatchard analyzed using analysis software, KELL (Ver. 6, BIOSOFT) and the dissociation constant (KD value) was determined. […]

male Wistar rats = test: Evaluation of anti-stress effects (defecation under psychological stress); type: in vivo, rat; settings: 10 mg/kg orally 30 minutes before stressor load; counted 1 hour later; media treated group average 8.7 feces
Experimental: Psychological stress was loaded to male Wistar rats (Brain research, 641, 21-28, 1994). Water was stored up to the depth of about 10 cm in a container where the platform was set at the center. A stressor began to load to rats 30 minutes after the vehicle or the compound in the present invention (the compound of Example 15(39)) were orally administered by dosage of 10 mg/kg. The number of defecation was counted 1 hour later (10 per each group). Rats without administration and load of stressor rarely defecated for 1 hour. In contrast, remarkable defecation was admitted in media treated group (average 8.7 feces) loaded by stressor. […] The results clarified that the compounds in the present invention had anti-stress effects.

SMILES | Ki (MBR) [µM] | number of defecation (average) (male Wistar rats) [feces]
O=C1N(c2ccccc2)CCC12CCCN(S(=O)(=O)c1ccccc1)C2 (stereo not drawn) [Example 7, 2-phenyl-7-(phenylsulfonyl)-2,7-diazaspiro[4.5]decan-1-one] | 0.23 | –
COc1ccc(S(=O)(=O)N2CCCC3(CCN(c4ccc(Cl)cc4)C3=O)C2)cc1 (stereo not drawn) [Example 15(39), 2-(4-chlorophenyl)-7-[(4-methoxyphenyl)sulfonyl]-2,7-diazaspiro[4.5]decan-1-one] | 0.04 | 5.8
